Experimental data as given in US6838580B2, “Opioid derivative” (Teikoku Seiyaku Co., Ltd., priority 2002, dated 2005).
“Also recorded” adds a separate entry of the source. Marks after values point to notes of the source that are not given here.

Experiments:
SD Male rats [1] = assay: Analgesic effect, Randoll-Seritto hind limb pressure method, intravenous administration; format: in vivo; details: rat, i.v.
Method: (§1) SD Male rats, weighing 110 to 130 g, were used. One group consisted of five rats. The analgesic effects were examined by a Randoll-Seritto method. […] The threshold was expressed in mm Hg. During the measurement, the upper limit of the pressure applied to a hind limb was 100 mm Hg in order to avoid damage of the tissues.
(§2) 2) When administered intravenously (i.v.), a volume of 2 ml/kg weight was administered to a tail vein and, when administered subcutaneously (s.c.), a volume of 2 ml/kg weight was subcutaneously administered to the back. In the case of intravenous administration, a 1 mg/kg, 3 mg/kg or 10 mg/kg compound of Ex.1 administration group, a 1 mg/kg, 3 mg/kg or 10 mg/kg compound of Ex.4 administration group, a 2 ml/kg physiological saline administration group and a 5 mg/kg morphine hydrochloride administration group were made, respectively. In the case of subcutaneous administration, a 10 mg/kg, 30 mg/kg or 100 mg/kg compound of Ex.1 administration group, a 10 mg/kg, 30 mg/kg or 100 mg/kg compound of Ex.4 administration group, a 2 ml/kg physiological saline administration group and a 5 mg/kg morphine hydrochloride administration group were made, respectively. Observation of the analgesic action was performed 15 minutes, 30 minutes, 1 hour and 2 hours after administration in the case of intravenous administration, 30 minutes, 1 hour, 2 hours and 3 hours after administration in the case of subcutaneous administration, respectively.
(§3) In order to perform a significant difference test between respective administration groups and control groups, and between values at respective times before administration and after administration, a Dunnet multiple comparative test method was used. In the statistical processing for performing a significant difference test between morphine hydrochloride administration groups and control groups, Student t-test was used. For performing a significant difference test between values at respective times before administration and after administration in morphine hydrochloride administration groups, a Dunnet multiple comparative test method was used. A significant level was at 5 or lower % risk rate (two-tailed test).

SD Male rats [2] = assay: Analgesic effect, Randoll-Seritto hind limb pressure method, subcutaneous administration; format: in vivo; details: rat, s.c.
Method: as §1, §2, §3

μ-opioid receptor = μ-opioid receptor (Cavia porcellus, UniProt A0ACM8Q262); assay: Guinea pig ileum (GPI) assay, inhibition of electrically stimulated constriction; format: cell-based; details: agonist activity, read-out: GPI (IC50 ± S.E.)
Method: An assay test for agonist and antagonist activities of opioid compounds was performed using guinea pig ileum (GPI) and mouse seminiferous tract (MVD). That is, male guinea pigs having the weight of around 300 g were killed by exsanguination, an ileum section having a length of around 10 cm was isolated from an ileum close to an ileum-caecum region was held at 36° C. The ileum section was placed in a Magnus tube treated with an oxygen mixture (95% O2/5% CO2) and filled with Krebs solution in the state where the rest tension of 1 g was applied with an isotonic transducer and, then, was performed. Then, the electrical stimulation was applied at 30V for 0.5 ms. via electrode previously installed in the Magnus tube to constrict guinea pig ileum longitudinal muscle and, after constriction was stabilized, a peptidase inhibitor was added. Then, the present peptide derivative to be tested was added, the constriction of guinea pig ileum longitudinal muscle was taken by GrassFTO 0.3 transducer and monitored by an amplifier and a recorder connected to the transducer. The opioid activity was determined by constriction inhibition after addition of the peptide derivative to be tested and constriction inhibition cancellation by addition of naloxone, a selective opioid antagonist. […]

[3] = 10 mg/kg, before administration
[4] = 30 mg/kg, before administration
[5] = 100 mg/kg, before administration

Chain of μ-opioid receptor (A0ACM8Q262 1-400): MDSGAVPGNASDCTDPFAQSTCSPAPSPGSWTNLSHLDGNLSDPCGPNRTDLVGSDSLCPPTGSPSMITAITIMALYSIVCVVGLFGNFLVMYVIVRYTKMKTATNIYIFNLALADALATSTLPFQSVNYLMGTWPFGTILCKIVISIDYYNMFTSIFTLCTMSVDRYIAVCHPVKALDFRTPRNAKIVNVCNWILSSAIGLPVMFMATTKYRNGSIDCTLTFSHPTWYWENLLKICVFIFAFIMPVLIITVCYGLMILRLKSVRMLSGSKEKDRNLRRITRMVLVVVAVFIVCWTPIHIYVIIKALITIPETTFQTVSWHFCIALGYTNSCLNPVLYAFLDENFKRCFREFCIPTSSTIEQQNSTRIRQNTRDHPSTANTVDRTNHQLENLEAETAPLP

Row | Structure (SMILES) | Threshold (mmHg) (SD Male rats [1]; 3 mg/kg, 0.25 hr) | Threshold (mmHg) (SD Male rats [1]; 3 mg/kg, 0.5 hr) | Threshold (mmHg) (SD Male rats [1]; 3 mg/kg, 1 hr) | Threshold (mmHg) (SD Male rats [1]; 3 mg/kg, 2 hr) | Threshold (mmHg) (SD Male rats [1]; 3 mg/kg, before administration) | Threshold (mmHg) (SD Male rats [1]; 10 mg/kg, 0.25 hr) | Threshold (mmHg) (SD Male rats [1]; 10 mg/kg, 0.5 hr) | Threshold (mmHg) (SD Male rats [1]; 10 mg/kg, 1 hr) | Threshold (mmHg) (SD Male rats [1]; 10 mg/kg, 2 hr) | Threshold (mmHg) (SD Male rats [1]; [3]) | Change in escape reaction threshold / analgesic effect, in words (SD Male rats [2]; 10 mg/kg) | Threshold (mmHg) (SD Male rats [2]; 10 mg/kg, 0.5 hr) | Threshold (mmHg) (SD Male rats [2]; 10 mg/kg, 1 hr) | Threshold (mmHg) (SD Male rats [2]; 10 mg/kg, 2 hr) | Threshold (mmHg) (SD Male rats [2]; 10 mg/kg, 3 hr) | Threshold (mmHg) (SD Male rats [2]; [3]) | Change in escape reaction threshold / analgesic effect, in words (SD Male rats [2]; 30 mg/kg) | Threshold (mmHg) (SD Male rats [2]; 30 mg/kg, 0.5 hr) | Threshold (mmHg) (SD Male rats [2]; 30 mg/kg, 1 hr) | Threshold (mmHg) (SD Male rats [2]; 30 mg/kg, 2 hr) | also measured
1 | Cc1cc(O)cc(C)c1C[C@H](N)C(=O)NCCCCNC(=O)[C@@H](N)Cc1c(C)cc(O)cc1C.Cl.Cl [Ex.1, 1,4-Bis-(Dmt-amino)butane.2HCl] | 55 ± 2 | 56 ± 3 | 52 ± 4 | 49 ± 2 | 48 ± 2 | 60 ± 2**^,$$ mmHg | 56 ± 3 | 54 ± 2 | 53 ± 2 | 48 ± 2 | tendency of an increase in the threshold was seen; also recorded: exhibited the significant analgesic effect as compared with control groups | 55 ± 5 | 62 ± 6 | 58 ± 3 | 57 ± 2 | 47 ± 2 | significant increase in the threshold was seen 1 hour and 2 hours after administration | 52 ± 4 | 65 ± 5^$$ mmHg | 68 ± 3**^,$$ mmHg | Threshold (mmHg) (SD Male rats [1]; 1 mg/kg, before administration): 48 ± 2 mmHg; Change in escape reaction threshold / analgesic effect, in words (SD Male rats [1]; 10 mg/kg): significant increase in the threshold was seen 15 minutes after administration; also recorded: exhibited an analgesic effect but is weaker as compared with the case of morphine 10 mg/kg administration and its duration time was shorter; Threshold (mmHg) (SD Male rats [2]; 30 mg/kg, 3 hr): 59 ± 4 mmHg; Threshold (mmHg) (SD Male rats [2]; [4]): 47 ± 2 mmHg; Change in escape reaction threshold / analgesic effect, in words (SD Male rats [2]; 100 mg/kg): significant increase was seen at any measuring time after administration; also recorded: approximately comparative to the effect by morphine 5 mg/kg subcutaneous administration; Threshold (mmHg) (SD Male rats [2]; 100 mg/kg, 0.5 hr): 86 ± 2**^,$$ mmHg; Threshold (mmHg) (SD Male rats [2]; 100 mg/kg, 1 hr): 77 ± 2**^,$$ mmHg; Threshold (mmHg) (SD Male rats [2]; 100 mg/kg, 2 hr): 77 ± 2**^,$$ mmHg; Threshold (mmHg) (SD Male rats [2]; 100 mg/kg, 3 hr): 70 ± 3**^,$$ mmHg; Threshold (mmHg) (SD Male rats [2]; [5]): 47 ± 2 mmHg; IC50 (μ-opioid receptor): 5.33 ± 0.65 nM
2 | Cc1cc(O)cc(C)c1C[C@H](N)C(=O)NCCCCCCNC(=O)[C@@H](N)Cc1c(C)cc(O)cc1C [Ex.4, 1,6-Bis(Dmt-amino)hexane.2HCl] | 57 ± 4 | 54 ± 3 | 54 ± 5 | 53 ± 3 | 48 ± 2 | 54 ± 3 mmHg | 53 ± 3 | 57 ± 2 | 52 ± 2 | 49 ± 2 | tendency of a slight increase in the threshold was seen | 58 ± 3 | 58 ± 5 | 55 ± 5 | 53 ± 1 | 47 ± 2 | significant increase was seen 2 hours after administration; also recorded: exhibited the significant analgesic effect 2 hours after administration | 59 ± 3 | 56 ± 3 mmHg | 65 ± 5^$$ mmHg | Change in escape reaction threshold / analgesic effect, in words (SD Male rats [1]; all doses (1, 3, 10 mg/kg)): significant change in the threshold was not seen at any measuring time at any dose; also recorded: no analgesic effect was seen; Analgesic effect compared with compound of Ex.1, in words (SD Male rats [2]): weaker and has a shorter duration time than in compound of Ex.1; Threshold (mmHg) (SD Male rats [2]; 30 mg/kg, 3 hr): 59 ± 4 mmHg; Threshold (mmHg) (SD Male rats [2]; [4]): 47 ± 2 mmHg; Change in escape reaction threshold / analgesic effect, in words (SD Male rats [2]; 100 mg/kg): significant difference was seen in the measured values 30 minutes, 1 hour and 2 hours after administration; also recorded: significant analgesic effect was exhibited from 30 minutes after administration; Threshold (mmHg) (SD Male rats [2]; 100 mg/kg, 0.5 hr): 69 ± 6**^,$$ mmHg; Threshold (mmHg) (SD Male rats [2]; 100 mg/kg, 1 hr): 68 ± 3*^,$ mmHg; Threshold (mmHg) (SD Male rats [2]; 100 mg/kg, 2 hr): 75 ± 8**^,$$ mmHg; Threshold (mmHg) (SD Male rats [2]; 100 mg/kg, 3 hr): 58 ± 2 mmHg; Threshold (mmHg) (SD Male rats [2]; [5]): 48 ± 2 mmHg
